Where two headings read alike, the source gives them in different places. Starred links: 1 amine or outer side, 2 acyl side, 3 side chain; linkers in the order of their positions; H or OH if unused. Positions of bridges follow the written chain, without caps; N, C: chain ends. Non-standard residues stand in square brackets, D forms with d. Residues, ends and D or L forms follow the SMILES beside them. Hexanoyl(3S-OH,4R-NH2,5-Me) = CC(C)[C@@H](N[*:1])[C@@H](O)CC(=O)[*:2]; NMeY = CN[C@@H](Cc1ccc(O)cc1)C(=O)O; NMeF = CN[C@@H](Cc1ccccc1)C(=O)O; dNMeL = CN[C@H](CC(C)C)C(=O)O; Hiv = CC(C)[C@H](O)C(=O)O; Lac = C[C@H](O)C(=O)O
Key:
SK-BR3 = test: SRB colorimetric cell growth inhibition assay, SK-BR3; settings: for CC50: read-out: LC50; for TGI: total growth inhibition
Experimental: (§1) This form of assay employs 96 well cell culture microplates of […] diameter (Faircloth, 1988; Mosmann, 1983). Most of the cell lines are obtained from American Type Culture Collection (ATCC) derived from different human cancer types.
(§2) Cells are maintained in RPMI 1640 10% FBS, supplemented with 0.1 g/l penicillin and 0.1 g/l streptomycin sulfate and then incubated at 37° C., 5% CO2 and 98% humidity. For the experiments, cells were harvested from subconfluent cultures using trypsin and resuspended in fresh medium before plating.
(§3) Cells are seeded in 96 well microtiter plates, at 5×10^3 cells per well in aliquots of 195 μl medium, and they are allowed to attach to the plate surface by growing in drug free medium for 18 hours. Afterward, samples are added in aliquots of 5 μl in a ranging from 10 to 10-8 μg/ml, dissolved in DMSO/EtOH/PBS (0.5:0.5:99). After 48 hours exposure, the antitumor effect are measured by the SRB methodology: cells are fixed by adding 50 μl of cold 50% (wt/vol) trichloroacetic acid (TCA) and incubated for 60 minutes at 4° C.
(§4) Plates are washed with deionised water and dried. One hundred μl of SRB solution (0.4% wt/vol in 1% acetic acid) is added to each microtiter well and incubated for 10 minutes at room temperature. Unbound SRB is removed by washing with 1% acetic acid. Plates are air dried and bound stain is solubilized with Tris buffer. Optical densities are read on a automated spectrophotometric plate reader at a single wavelength of 490 nm.
(§5) The values for mean+/−SD of data from triplicate wells are calculated.
(§6) Some parameters for cellular responses can be calculated: GI=growth inhibition, TGI=total growth inhibition (cytostatic effect) and LC=cell killing (cytotoxic effect).

IGROV = test: SRB colorimetric cell growth inhibition assay, IGROV; settings: for CC50: read-out: LC50; for TGI: total growth inhibition
Experimental: as §1, §2, §3, §4, §5, §6

HELA = test: SRB colorimetric cell growth inhibition assay, HELA; settings: for TGI: total growth inhibition; for CC50: read-out: LC50
Experimental: as §1, §2, §3, §4, §5, §6

A549 = test: SRB colorimetric cell growth inhibition assay, A549; settings: for TGI: total growth inhibition; for CC50: read-out: LC50
Experimental: as §1, §2, §3, §4, §5, §6

DU145 = test: SRB colorimetric cell growth inhibition assay, DU145; settings: for TGI: total growth inhibition; for CC50: read-out: LC50
Experimental: as §1, §2, §3, §4, §5, §6

HELA-APL = test: SRB colorimetric cell growth inhibition assay, HELA-APL; settings: for TGI: total growth inhibition; for CC50: read-out: LC50
Experimental: as §1, §2, §3, §4, §5, §6

IGROV-ET = test: SRB colorimetric cell growth inhibition assay, IGROV-ET; settings: for CC50: read-out: LC50; for TGI: total growth inhibition
Experimental: as §1, §2, §3, §4, §5, §6

LOVO-DOX = test: SRB colorimetric cell growth inhibition assay, LOVO-DOX; settings: for CC50: read-out: LC50; for TGI: total growth inhibition
Experimental: as §1, §2, §3, §4, §5, §6

HT29 = test: SRB colorimetric cell growth inhibition assay, HT29; settings: for TGI: total growth inhibition; for CC50: read-out: LC50
Experimental: as §1, §2, §3, §4, §5, §6

LN-caP = test: SRB colorimetric cell growth inhibition assay, LN-caP; settings: for CC50: read-out: LC50; for TGI: total growth inhibition
Experimental: as §1, §2, §3, §4, §5, §6

PANC1 = test: SRB colorimetric cell growth inhibition assay, PANC1; settings: for CC50: read-out: LC50; for TGI: total growth inhibition
Experimental: as §1, §2, §3, §4, §5, §6

SK-MEL-28 = test: SRB colorimetric cell growth inhibition assay, SK-MEL-28; settings: for CC50: read-out: LC50; for TGI: total growth inhibition
Experimental: as §1, §2, §3, §4, §5, §6

LOVO = test: SRB colorimetric cell growth inhibition assay, LOVO; settings: for CC50: read-out: LC50; for TGI: total growth inhibition
Experimental: as §1, §2, §3, §4, §5, §6

K562 = test: SRB colorimetric cell growth inhibition assay, K562; settings: for CC50: read-out: LC50; for TGI: total growth inhibition
Experimental: as §1, §2, §3, §4, §5, §6

[1] = SK-BR3 cells, SRB, 48 hours exposure
[2] = IGROV cells, SRB, 48 hours exposure
[3] = HELA cells, SRB, 48 hours exposure
[4] = A549 cells, SRB, 48 hours exposure
[5] = DU145 cells, SRB, 48 hours exposure
[6] = HELA-APL cells, SRB, 48 hours exposure
[7] = IGROV-ET cells, SRB, 48 hours exposure
[8] = LOVO-DOX cells, SRB, 48 hours exposure
[9] = HT29 cells, SRB, 48 hours exposure
[10] = LN-caP cells, SRB, 48 hours exposure
[11] = PANC1 cells, SRB, 48 hours exposure
[12] = SK-MEL-28 cells, SRB, 48 hours exposure
[13] = LOVO cells, SRB, 48 hours exposure
[14] = K562 cells, SRB, 48 hours exposure

COc1ccc(C[C@H]2C(=O)OC[C@H](NC(=O)[C@@H](CC(C)C)N(C)C(=O)[C@@H]3CCCN3C(=O)[C@H](C)O)C(=O)N[C@H](C(C)C)[C@@H](O)CC(=O)O[C@@H](C(C)C)C(=O)N[C@@H](CC(C)C)C(=O)N3CCC[C@H]3C(=O)N2C)cc1 [Compound 62, [N-Ser^6]-Tamandarin B] (H-[Lac]P[dNMeL]S[Hexanoyl(3S-OH,4R-NH2,5-Me)][Hiv]LP[NMeY](Me); ester 4-C)
GI50 (SK-BR3; Homo sapiens, SK-BR-3, 48 h): 3.74 nM | CC50 (SK-BR3; Homo sapiens, SK-BR-3, 48 h): ≥ 9730 nM | TGI (SK-BR3; [1]): 4.05E−08 Molar | GI50 (IGROV; Homo sapiens, IGROV, 48 h): 1990 nM | CC50 (IGROV; Homo sapiens, IGROV, 48 h): 9840 nM | TGI (IGROV; [2]): 5.29E−06 Molar | TGI (HELA; [3]): 2.61E−08 Molar | GI50 (HELA; Homo sapiens, HeLa, 48 h): 3.76 nM | CC50 (HELA; Homo sapiens, HeLa, 48 h): 368 nM | TGI (A549; [4]): 3.51E−07 Molar | GI50 (A549; Homo sapiens, A549, 48 h): 51.5 nM | CC50 (A549; Homo sapiens, A549, 48 h): 2900 nM | TGI (DU145; [5]): 2.49E−08 Molar | GI50 (DU145; Homo sapiens, DU-145, 48 h): 6.79 nM | CC50 (DU145; Homo sapiens, DU-145, 48 h): 82.6 nM | TGI (HELA-APL; [6]): 5.41E−06 Molar | GI50 (HELA-APL; Homo sapiens, 48 h): 411 nM | CC50 (HELA-APL; Homo sapiens, 48 h): ≥ 9730 nM | GI50 (IGROV-ET; Homo sapiens, 48 h): 456 nM | CC50 (IGROV-ET; Homo sapiens, 48 h): 6950 nM | TGI (IGROV-ET; [7]): 1.90E−06 Molar | GI50 (LOVO-DOX; Homo sapiens, 48 h): 2390 nM | CC50 (LOVO-DOX; Homo sapiens, 48 h): ≥ 9730 nM | TGI (LOVO-DOX; [8]): 8.40E−06 Molar | TGI (HT29; [9]): 2.03E−07 Molar | GI50 (HT29; Homo sapiens, HT-29, 48 h): 23.7 nM | CC50 (HT29; Homo sapiens, HT-29, 48 h): ≥ 9730 nM | GI50 (LN-caP; Homo sapiens, LNCaP, 48 h): 2.71 nM | CC50 (LN-caP; Homo sapiens, LNCaP, 48 h): 58.4 nM | TGI (LN-caP; [10]): 7.24E−09 Molar | GI50 (PANC1; Homo sapiens, PANC-1, 48 h): 34.9 nM | CC50 (PANC1; Homo sapiens, PANC-1, 48 h): ≥ 9730 nM | TGI (PANC1; [11]): 8.82E−07 Molar | GI50 (SK-MEL-28; Homo sapiens, SK-MEL-28, 48 h): 16.6 nM | CC50 (SK-MEL-28; Homo sapiens, SK-MEL-28, 48 h): 675 nM | TGI (SK-MEL-28; [12]): 8.24E−08 Molar | GI50 (LOVO; Homo sapiens, LoVo, 48 h): 38.9 nM | CC50 (LOVO; Homo sapiens, LoVo, 48 h): 3660 nM | TGI (LOVO; [13]): 2.31E−07 Molar | GI50 (K562; Homo sapiens, K562, 48 h): 78 nM | CC50 (K562; Homo sapiens, K562, 48 h): 2390 nM | TGI (K562; [14]): 3.03E−07 Molar

CC(C)C[C@@H]1NC(=O)[C@H](C(C)C)OC(=O)C[C@H](O)[C@@H](C(C)C)NC(=O)[C@@H](NC(=O)[C@@H](CC(C)C)N(C)C(=O)[C@@H]2CCCN2C(=O)[C@H](C)O)[C@@H](C)OC(=O)[C@H](Cc2ccccc2)N(C)C(=O)[C@@H]2CCCN2C1=O [Phe^5 tamandarin B, [N-MePhe^5]-Tamandarin B] (H-[Lac]P[dNMeL]T[Hexanoyl(3S-OH,4R-NH2,5-Me)][Hiv]LP[NMeF]; ester 4-C)
GI50 (SK-BR3; SK-BR3 breast adenocarcinoma cells, SRB, 48 hours exposure): 0.658 nM | TGI (SK-BR3; [1]): 4.49E−09 Molar | CC50 (SK-BR3; SK-BR3 cells, cell killing, SRB, 48 hours exposure): 312 nM | TGI (IGROV; [2]): 1.28E−08 Molar | GI50 (IGROV; IGROV ovary adenocarcinoma cells, SRB, 48 hours exposure): 2.49 nM | CC50 (IGROV; IGROV cells, cell killing, SRB, 48 hours exposure): 124 nM | TGI (HELA; [3]): 4.61E−09 Molar | GI50 (HELA; HELA cervix carcinoma cells, SRB, 48 hours exposure): 1.17 nM | CC50 (HELA; HELA cells, cell killing, SRB, 48 hours exposure): 55.5 nM | TGI (A549; [4]): 3.90E−08 Molar | GI50 (A549; A549 lung carcinoma cells, SRB, 48 hours exposure): 4.56 nM | CC50 (A549; A549 cells, cell killing, SRB, 48 hours exposure): 935 nM | TGI (DU145; [5]): 1.02E−08 Molar | GI50 (DU145; DU145 prostate carcinoma cells, SRB, 48 hours exposure): 2.37 nM | CC50 (DU145; DU145 cells, cell killing, SRB, 48 hours exposure): 268 nM | GI50 (HELA-APL; HELA-APL (aplidine resistant) cervix cells, SRB, 48 hours exposure): 44.5 nM | TGI (HELA-APL; [6]): 4.23E−07 Molar | CC50 (HELA-APL; HELA-APL cells, cell killing, SRB, 48 hours exposure): 9880 nM | GI50 (IGROV-ET; IGROV-ET (ET-743 resistant) ovary cells, SRB, 48 hours exposure): 215 nM | TGI (IGROV-ET; [7]): 7.88E−07 Molar | CC50 (IGROV-ET; IGROV-ET cells, cell killing, SRB, 48 hours exposure): 6350 nM | GI50 (LOVO-DOX; LOVO-DOX (MDR) colon adenocarcinoma cells, SRB, 48 hours exposure): 358 nM | TGI (LOVO-DOX; [8]): 1.97E−06 Molar | CC50 (LOVO-DOX; LOVO-DOX cells, cell killing, SRB, 48 hours exposure): 9880 nM | TGI (HT29; [9]): 7.89E−08 Molar | GI50 (HT29; HT29 colon adenocarcinoma cells, SRB, 48 hours exposure): 4.77 nM | CC50 (HT29; HT29 cells, cell killing, SRB, 48 hours exposure): 9880 nM | TGI (LN-caP; [10]): 8.32E−09 Molar | GI50 (LN-caP; LN-caP prostate adenocarcinoma cells, SRB, 48 hours exposure): 1.52 nM | CC50 (LN-caP; LN-caP cells, cell killing, SRB, 48 hours exposure): 101 nM | TGI (PANC1; [11]): 3.28E−08 Molar | GI50 (PANC1; PANC1 pancreatic carcinoma cells, SRB, 48 hours exposure): 3.81 nM | CC50 (PANC1; PANC1 cells, cell killing, SRB, 48 hours exposure): 9880 nM | GI50 (SK-MEL-28; SK-MEL-28 (MEL-28) melanoma cells, SRB, 48 hours exposure): 2.74 nM | TGI (SK-MEL-28; [12]): 1.88E−08 Molar | CC50 (SK-MEL-28; SK-MEL-28 cells, cell killing, SRB, 48 hours exposure): 205 nM | TGI (LOVO; [13]): 8.81E−08 Molar | GI50 (LOVO; LOVO colon adenocarcinoma cells, SRB, 48 hours exposure): 26.1 nM | CC50 (LOVO; LOVO cells, cell killing, SRB, 48 hours exposure): 5220 nM | GI50 (K562; [14]): 23.2 nM | TGI (K562; [14]): 9.88E−07 Molar | CC50 (K562; K562 cells, cell killing, SRB, 48 hours exposure): 9880 nM
